Results as given in ChEMBL document CHEMBL1165848, “Discovery of new cholesteryl ester transfer protein inhibitors via ligand-based pharmacophore modeling and QSAR analysis followed by synthetic exploration” (Eur J Med Chem, 2010).

The compounds below were run against T1, Cholesteryl ester transfer protein (Oryctolagus cuniculus, UniProt P22687) (assay: Inhibition of CETP in rabbit serum after 1 hr by fluorescent cholesteryl esters transfer assay). Conditions: not given.
T1 sequence (P22687 whole entry): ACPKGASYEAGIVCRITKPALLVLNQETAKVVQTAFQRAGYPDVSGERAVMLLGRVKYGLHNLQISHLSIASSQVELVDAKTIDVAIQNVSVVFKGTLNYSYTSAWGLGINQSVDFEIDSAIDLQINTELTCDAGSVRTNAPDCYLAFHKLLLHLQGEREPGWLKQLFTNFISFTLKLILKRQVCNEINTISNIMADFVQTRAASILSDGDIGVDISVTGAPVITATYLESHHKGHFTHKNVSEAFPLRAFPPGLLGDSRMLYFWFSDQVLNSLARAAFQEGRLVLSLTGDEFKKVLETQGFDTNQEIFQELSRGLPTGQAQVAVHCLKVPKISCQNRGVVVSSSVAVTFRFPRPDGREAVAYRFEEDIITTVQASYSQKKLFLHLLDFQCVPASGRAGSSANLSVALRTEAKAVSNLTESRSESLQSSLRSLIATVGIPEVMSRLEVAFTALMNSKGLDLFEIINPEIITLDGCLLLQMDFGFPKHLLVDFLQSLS
CC(C)Oc1cccc(N(Cc2cccc(OC(F)(F)C(F)F)c2)CC(O)C(F)(F)F)c1 (configuration not stated) gave an IC50 of 0.3 µM.

Same assay, conditions: read-out: IC50
OC(CN(Cc1cccc(C(F)(F)F)c1)c1cccc(Cl)c1)C(F)(F)F (configuration not stated) was tested, and the IC50 was 12 µM. With CCc1cc(Oc2cccc(N(Cc3cc(C(F)(F)F)ccc3F)C[C@@H](O)C(F)(F)F)c2)ccc1Cl the IC50 was 0.049 µM. Work on OC(CN(Cc1cccc(OC(F)(F)C(F)F)c1)c1cccc(OC2CCCCC2)c1)C(F)(F)F (configuration not stated) yielded an IC50 of 2.6 µM. In the case of OC(CN(Cc1cccc(Oc2cccc(C(F)(F)F)c2)c1)c1cccc(F)c1)C(F)(F)F (configuration not stated), the IC50 is reported as 0.0012 µM. C=CC(O)CN(Cc1cccc(OC(F)(F)F)c1)c1ccccc1Oc1ccccc1 (configuration not stated) was tested, and the IC50 was greater than 50 µM. In the case of OC(CN(Cc1cccc(OC(F)(F)C(F)F)c1)c1cccc(Oc2cccc(F)c2)c1)C(F)(F)F (configuration not stated), the IC50 is reported as 0.3 µM. Work on OC(CN(Cc1cccc(OC(F)(F)C(F)(F)F)c1)c1cccc(Oc2ccc(S)cc2)c1)C(F)(F)F (configuration not stated) yielded an IC50 greater than 50 µM. Compound CC(C)Cc1cccc(CN(CC(O)C(F)(F)F)c2cccc(Oc3ccccc3)c2)c1 (configuration not stated) has an IC50 of 0.54 µM. CN(C)c1cccc(Oc2cccc(N(Cc3cccc(OC(F)(F)C(F)F)c3)CC(O)C(F)(F)F)c2)c1 (configuration not stated) was tested, and the IC50 was 0.2 µM. With OC(CN(Cc1cccc(OC(F)(F)F)c1)c1ccccc1Oc1ccccc1)c1ccccc1 (configuration not stated) the IC50 was greater than 50 µM. With OC(CN(Cc1cccc(OC(F)(F)C(F)F)c1)c1cccc(Oc2ccc(OC(F)(F)F)cc2)c1)C(F)(F)F (configuration not stated) the IC50 was 0.4 µM. Compound OC(CN(Cc1cccc(OC(F)(F)C(F)F)c1)c1cccc(Oc2ccc(-c3ccccc3)cc2)c1)C(F)(F)F (configuration not stated) has an IC50 of 2.5 µM. With OC(CN(Cc1cccc(C(F)(F)F)c1)c1ccccc1)C(F)(F)F (configuration not stated) the IC50 was 15 µM. OC(CN(Cc1cccc(C(F)(F)F)c1)c1cccc(F)c1)C(F)(F)F (configuration not stated) gave an IC50 of 40 µM. Work on CCc1cc(Oc2cccc(N(Cc3ccc(C(F)(F)F)cc3F)C[C@@H](O)C(F)(F)F)c2)ccc1Cl yielded an IC50 of 0.04 µM. In the case of Cc1cc(C)cc(Oc2cccc(N(Cc3cccc(OC(F)(F)C(F)F)c3)CC(O)C(F)(F)F)c2)c1 (configuration not stated), the IC50 is reported as 0.07 µM. In the case of OC(CN(Cc1ccc(F)c(-c2ccco2)c1)c1cccc(Oc2ccccc2)c1)C(F)(F)F (configuration not stated), the IC50 is reported as 0.72 µM. OC(CN(Cc1cccc(OC(F)(F)F)c1)c1ccc(Oc2ccccc2)cc1)C(F)(F)F (configuration not stated) was tested, and the IC50 was 25 µM. Compound Cc1ccccc1N(Cc1cccc(C(F)(F)F)c1)CC(O)C(F)(F)F (configuration not stated) has an IC50 greater than 100 µM. OC(CN(Cc1cccc(-c2ccccc2)c1)c1cccc(Oc2ccccc2)c1)C(F)(F)F (configuration not stated) gave an IC50 of 4.42 µM. For OC(CN(Cc1cccc(OC(F)(F)C(F)F)c1)c1cccc(OC2CCCC2)c1)C(F)(F)F (configuration not stated), the IC50 was 0.4 µM. Cc1ccc(CN(CC(O)C(F)(F)F)c2cccc(F)c2)cc1 (configuration not stated) was tested, and the IC50 was 65 µM. For OC(CN(Cc1ccc(OC(F)(F)F)cc1)c1cccc(F)c1)C(F)(F)F (configuration not stated), the IC50 was 15 µM. Work on CC(C)(C)Oc1cccc(CN(CC(O)C(F)(F)F)c2cccc(Oc3ccccc3)c2)c1 (configuration not stated) yielded an IC50 of 0.66 µM. For OC(CN(Cc1cccc(OC(F)(F)C(F)F)c1)c1cccc(Oc2cccc(Cl)c2Cl)c1)C(F)(F)F (configuration not stated), the IC50 was 0.03 µM. COc1cccc(CN(CC(O)C(F)(F)F)c2cccc(Oc3ccccc3)c2)c1 (configuration not stated) was tested, and the IC50 was 15 µM. For Cc1cccc(CN(CC(O)C(F)(F)F)c2cccc(F)c2)c1 (configuration not stated), the IC50 was greater than 100 µM. CCc1cc(Oc2cccc(N(Cc3cccc(OC(F)(F)F)c3)C[C@@H](O)C(F)(F)F)c2)ccc1Cl was tested, and the IC50 was 0.035 µM. Work on OC(CN(Cc1cccc(OC(F)(F)C(F)F)c1)c1cccc(Oc2ccc(Cc3ccccc3)cc2)c1)C(F)(F)F (configuration not stated) yielded an IC50 of 2.4 µM. In the case of OC(CN(Cc1cccc(OC(F)(F)C(F)F)c1)c1cccc(OCc2cccc(C(F)(F)F)c2)c1)C(F)(F)F (configuration not stated), the IC50 is reported as 0.09 µM. In the case of OC(CN(Cc1cccc(OC(F)(F)C(F)F)c1)c1cccc(Oc2ccc(Cl)cc2)c1)C(F)(F)F (configuration not stated), the IC50 is reported as 0.3 µM. For OC(CN(Cc1cccc(OC(F)(F)C(F)F)c1)c1cccc(OCc2ccccc2)c1)C(F)(F)F (configuration not stated), the IC50 was 0.2 µM. Compound Cc1cccc(Oc2cccc(N(Cc3cccc(OC(F)(F)C(F)F)c3)CC(O)C(F)(F)F)c2)c1 (configuration not stated) has an IC50 of 0.09 µM. With OC(CN(Cc1cccc(OC(F)(F)C(F)F)c1)c1cccc(Oc2cc(F)cc(F)c2)c1)C(F)(F)F (configuration not stated) the IC50 was 0.2 µM. Cc1ccccc1CN(CC(O)C(F)(F)F)c1cccc(F)c1 (configuration not stated) was tested, and the IC50 was greater than 100 µM. Work on OC(CN(Cc1cccc(-c2cccnc2)c1)c1cccc(Oc2ccccc2)c1)C(F)(F)F (configuration not stated) yielded an IC50 of 14.3 µM. With Cc1cccc(N(Cc2cccc(C(F)(F)F)c2)CC(O)C(F)(F)F)c1 (configuration not stated) the IC50 was 10 µM. Work on Cc1ccc(N(Cc2cccc(C(F)(F)F)c2)CC(O)C(F)(F)F)cc1 (configuration not stated) yielded an IC50 greater than 100 µM. Work on CC(C)(C)c1cccc(Oc2cccc(N(Cc3cccc(OC(F)(F)C(F)F)c3)CC(O)C(F)(F)F)c2)c1 (configuration not stated) yielded an IC50 of 0.08 µM. OC(CN(Cc1cccc(Oc2ccccc2)c1)Cc1cccc(OC(F)(F)F)c1)C(F)(F)F (configuration not stated) showed an IC50 of 30 µM. Work on OC(CN(Cc1cccc(OC(F)(F)C(F)F)c1)c1cccc(Oc2ccc(Cl)c(Cl)c2)c1)C(F)(F)F (configuration not stated) yielded an IC50 of 0.08 µM. OC(CN(Cc1cccc(OC(F)(F)F)c1)c1ccccc1Oc1ccccc1)c1ccc(C(F)(F)F)cc1 (configuration not stated) was tested, and the IC50 was 18 µM. For Cc1ccc(Oc2cccc(N(Cc3cccc(OC(F)(F)C(F)F)c3)CC(O)C(F)(F)F)c2)cc1 (configuration not stated), the IC50 was 0.1 µM. For OC(CN(Cc1cccc(OC(F)(F)C(F)F)c1)c1cccc(F)c1)C(F)(F)F (configuration not stated), the IC50 was 4.5 µM. In the case of OC(CN(Cc1ccccc1)c1cccc(F)c1)C(F)(F)F (configuration not stated), the IC50 is reported as greater than 100 µM. In the case of OC(Cc1ccccc1)CN(Cc1cccc(OC(F)(F)F)c1)c1ccccc1Oc1ccccc1 (configuration not stated), the IC50 is reported as greater than 50 µM. For OC(CN(Cc1ccc(OC(F)(F)F)cc1)c1cccc(Oc2ccccc2)c1)C(F)(F)F (configuration not stated), the IC50 was 4 µM. OC(CN(Cc1ccc(-c2ccccc2)cc1)c1cccc(F)c1)C(F)(F)F (configuration not stated) showed an IC50 of 20 µM. For CCc1cc(Oc2cccc(N(Cc3cccc(C(F)(F)C(F)(F)F)c3)C[C@@H](O)C(F)(F)F)c2)ccc1Cl, the IC50 was 0.045 µM. Cc1cc(Oc2cccc(N(Cc3cccc(OC(F)(F)C(F)F)c3)CC(O)C(F)(F)F)c2)ccc1Cl (configuration not stated) gave an IC50 of 0.2 µM. OC(CN(Cc1cccc(C2CCCC2)c1)c1cccc(Oc2ccccc2)c1)C(F)(F)F (configuration not stated) showed an IC50 of 0.3 µM. Cc1ccc(CN(CC(O)C(F)(F)F)c2cccc(Oc3ccccc3)c2)cc1-c1ccco1 (configuration not stated) showed an IC50 of 3.96 µM. Compound COc1cc(N(Cc2cccc(SC(F)(F)F)c2)C[C@@H](O)C(F)(F)F)cc(OC)c1OC has an IC50 of 5 µM. OC(CN(Cc1cccc(OC(F)(F)F)c1)Cc1cccc(OC(F)(F)F)c1)C(F)(F)F (configuration not stated) gave an IC50 of 23 µM. For OC(CN(Cc1cccc(SC(F)(F)F)c1)c1cccc(Oc2ccccc2)c1)C(F)(F)F (configuration not stated), the IC50 was 0.39 µM. Work on O=[N+]([O-])c1c(F)cccc1Oc1cccc(N(Cc2cccc(OC(F)(F)C(F)F)c2)CC(O)C(F)(F)F)c1 (configuration not stated) yielded an IC50 of 0.1 µM. Compound CCCC(O)CN(Cc1cccc(OC(F)(F)F)c1)c1ccccc1Oc1ccccc1 (configuration not stated) has an IC50 of 3.6 µM. CC(C)c1ccc(Oc2cccc(N(Cc3cccc(OC(F)(F)C(F)F)c3)CC(O)C(F)(F)F)c2)cc1 (configuration not stated) showed an IC50 of 0.4 µM. OC(CN(Cc1cccc(OC(F)(F)C(F)F)c1)c1cccc(Oc2cccnc2)c1)C(F)(F)F (configuration not stated) showed an IC50 of 1.3 µM. Cc1cccnc1-c1cccc(CN(CC(O)C(F)(F)F)c2cccc(Oc3ccccc3)c2)c1 (configuration not stated) gave an IC50 of 15 µM. Compound OC(CN(Cc1cccc(OC(F)(F)C(F)F)c1)c1cccc(Oc2ccccc2Cl)c1)C(F)(F)F (configuration not stated) has an IC50 of 0.3 µM. For CC(C)(O)c1cccc(CN(CC(O)C(F)(F)F)c2cccc(Oc3ccccc3)c2)c1 (configuration not stated), the IC50 was 7.8 µM. Compound Cc1ccc(Oc2cccc(N(Cc3cccc(OC(F)(F)C(F)F)c3)CC(O)C(F)(F)F)c2)cc1C (configuration not stated) has an IC50 of 0.08 µM. OC(CN(Cc1cccc(Oc2ccccc2)c1)c1cccc(F)c1)C(F)(F)F (configuration not stated) was tested, and the IC50 was 15 µM. Compound OC(CN(Cc1cccc(C(F)(F)F)c1)c1cccc(C(F)(F)F)c1)C(F)(F)F (configuration not stated) has an IC50 of 10 µM. Work on OC(CN(Cc1cccc(-c2ccncc2)c1)c1cccc(Oc2ccccc2)c1)C(F)(F)F (configuration not stated) yielded an IC50 of 6.24 µM.
